One data set is described as follows: physchem. To be noted: water, Solubility of rasagiline salts in water.
The nature of data set [1]: Solubility of rasagiline salts in water measured using Crystal16 (Avantium Technologies).

In the case of `C#CCN[C@@H]1CCc2ccccc21` [(+)-camphor-10-sulfonate, Rasagiline (+)-camphor-10-sulfonate], the “Solubility of rasagiline salts in water” value was 175 mg/mL. Besides, the solubility in “physchem” worked out at 113 mg/mL.

Regarding `C#CCN[C@@H]1CCc2ccccc21` [L-tartrate, Rasagiline L-tartrate, reference compound], in data set [1], the solubility was less than 30 mg/mL. With `C#CCN[C@@H]1CCc2ccccc21` [L-mandelate, Rasagiline L-mandelate], the solubility in data set [1] (Solubility of rasagiline salts in water, 25 °C, H2O) came out at 70 mg/mL; in data set [1] (Solubility of rasagiline salts in water, 40 °C, H2O) it was 100 mg/mL.

As usually defined, the solubility is the concentration that dissolves in the medium under given conditions.
